# Test results published in ChEMBL document CHEMBL1135370, “Selective urokinase-type plasminogen activator (uPA) inhibitors. Part 2: (3-Substituted-5-halo-2-pyridinyl)guanidines” (Bioorg Med Chem Lett, 2002).
# What was measured:
# Plasminogen [1] = target: T1, Plasminogen (Homo sapiens, UniProt P00747); experiment: In vitro inhibition of human plasmin.; design: concentration or dose not given beside the values; conditions: concentration not given here
# [2] = target: T2, Tissue-type plasminogen activator (Homo sapiens, UniProt P00750); experiment: Ability to inhibit tissue plasminogen activator (quadratech) and S-2444 as substrate at concentration of 1 mM
# Target sequence in this assay (P00750 36-562 limits assumed): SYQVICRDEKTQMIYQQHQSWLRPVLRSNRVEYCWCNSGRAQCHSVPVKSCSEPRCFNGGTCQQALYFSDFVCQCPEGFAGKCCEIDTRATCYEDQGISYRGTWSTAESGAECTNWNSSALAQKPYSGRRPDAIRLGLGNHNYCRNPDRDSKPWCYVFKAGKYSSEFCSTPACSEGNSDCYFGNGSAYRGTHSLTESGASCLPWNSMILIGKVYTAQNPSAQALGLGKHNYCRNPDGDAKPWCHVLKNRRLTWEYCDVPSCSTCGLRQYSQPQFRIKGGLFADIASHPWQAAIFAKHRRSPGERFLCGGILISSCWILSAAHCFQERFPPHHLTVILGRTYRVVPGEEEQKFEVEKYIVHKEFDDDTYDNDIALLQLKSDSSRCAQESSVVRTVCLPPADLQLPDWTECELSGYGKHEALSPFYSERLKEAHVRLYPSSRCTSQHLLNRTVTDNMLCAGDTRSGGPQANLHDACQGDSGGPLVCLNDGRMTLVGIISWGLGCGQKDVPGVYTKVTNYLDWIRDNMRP
# [3] = target: Urokinase-type plasminogen activator (Homo sapiens, UniProt P00749); experiment: In vitro inhibition of human urokinase Plasminogen Activator.
# [4] = target: T2, Tissue-type plasminogen activator; experiment: Ability to inhibit tissue plasminogen activator (quadratech) and S-2444 as substrate
# Target sequence in this assay (P00750 whole entry): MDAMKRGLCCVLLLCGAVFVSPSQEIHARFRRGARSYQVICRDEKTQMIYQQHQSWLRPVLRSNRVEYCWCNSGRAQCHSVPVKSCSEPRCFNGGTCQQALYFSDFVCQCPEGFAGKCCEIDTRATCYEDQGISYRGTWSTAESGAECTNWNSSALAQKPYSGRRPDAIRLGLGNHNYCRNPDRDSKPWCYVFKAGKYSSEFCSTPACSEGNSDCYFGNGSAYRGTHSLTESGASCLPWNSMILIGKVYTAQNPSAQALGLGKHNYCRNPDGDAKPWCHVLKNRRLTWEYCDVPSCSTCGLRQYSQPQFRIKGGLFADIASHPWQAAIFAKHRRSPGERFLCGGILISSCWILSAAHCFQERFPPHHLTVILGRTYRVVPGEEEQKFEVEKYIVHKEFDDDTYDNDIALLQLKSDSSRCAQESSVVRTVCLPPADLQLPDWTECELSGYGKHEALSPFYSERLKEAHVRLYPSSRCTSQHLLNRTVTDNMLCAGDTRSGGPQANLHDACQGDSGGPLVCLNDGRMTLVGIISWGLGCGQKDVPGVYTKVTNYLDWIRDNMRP
# Plasminogen [5] = target: T1, Plasminogen; experiment: Ability to inhibit plasmin using human plasmin (quadratech) and Chromozym-PL (boehringer) as substrate
# [6] = target: T2, Tissue-type plasminogen activator; experiment: Ability to inhibit tissue plasminogen activator (quadratech) and S-2444 as substrate at concentration of 300 uM
# Target sequence in this assay (P00750 36-562 limits assumed): as the sequence (P00750 36-562 limits assumed) above
# Plasminogen [7] = target: T1, Plasminogen; experiment: Ability to inhibit plasmin using human plasmin (quadratech) and Chromozym-PL (boehringer) as substrate at concentration of 100 uM
# Plasminogen [8] = target: T1, Plasminogen; experiment: Ability to inhibit human plasmin using Chromozym-PL as substrate at concentration of 1 uM
# [9] = target: T2, Tissue-type plasminogen activator; experiment: Ability to inhibit human tissue plasminogen activator stimulator at concentration of 1 uM
# Target sequence in this assay (P00750 36-562 limits assumed): as above
# T1 sequence (P00747 97-580 limits assumed): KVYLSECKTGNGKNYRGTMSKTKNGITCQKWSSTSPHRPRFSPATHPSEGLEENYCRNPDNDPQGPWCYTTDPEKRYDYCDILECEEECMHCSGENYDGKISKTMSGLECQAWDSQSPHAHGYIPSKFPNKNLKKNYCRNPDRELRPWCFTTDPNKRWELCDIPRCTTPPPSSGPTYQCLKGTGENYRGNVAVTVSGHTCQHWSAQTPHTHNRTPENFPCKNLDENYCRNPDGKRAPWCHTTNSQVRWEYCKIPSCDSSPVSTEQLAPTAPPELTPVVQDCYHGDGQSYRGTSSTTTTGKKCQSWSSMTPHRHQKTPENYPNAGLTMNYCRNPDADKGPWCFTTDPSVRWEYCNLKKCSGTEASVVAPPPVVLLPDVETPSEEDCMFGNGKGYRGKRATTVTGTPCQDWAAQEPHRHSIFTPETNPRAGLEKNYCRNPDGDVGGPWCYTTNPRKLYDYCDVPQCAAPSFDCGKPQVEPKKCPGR
# T1 sequence (P00747 581-810 limits assumed): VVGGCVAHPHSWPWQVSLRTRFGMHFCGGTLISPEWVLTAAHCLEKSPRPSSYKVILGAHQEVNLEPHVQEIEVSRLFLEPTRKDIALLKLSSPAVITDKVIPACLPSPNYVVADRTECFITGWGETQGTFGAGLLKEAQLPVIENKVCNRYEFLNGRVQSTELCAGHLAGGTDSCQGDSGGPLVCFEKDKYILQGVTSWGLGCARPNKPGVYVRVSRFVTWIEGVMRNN
inhibition (Plasminogen [1]) [%],inhibition [2] [%],Ki [3] [µM],Ki [4] [µM],SMILES,also measured
,,16.1,,NC(N)=Nc1ncc(Cl)cc1OCC(=O)NCc1ccccc1,
,,0.69,60.1,COc1ccc(/C=C/c2cc(Cl)cnc2N=C(N)N)cc1,Ki (Plasminogen [5]): 42.5 µM
< 50,< 50,2,,CN(Cc1ccccc1)C(=O)/C=C/c1cc(Cl)cnc1N=C(N)N,
< 50,< 50,1.28,,CNC(=O)/C=C/c1cc(Cl)cnc1N=C(N)N,
,,0.17,52,NC(N)=Nc1ncc(Cl)cc1/C=C/c1cccc(C(=O)O)c1,
< 50,< 50,16.4,,COCCOc1cc(Cl)cnc1N=C(N)N,
< 50,< 50,,,N=C(N)Nc1ncc(Cl)cc1OCC(=O)O,
< 50,< 50,0.92,,N=C(N)Nc1ncc(Cl)cc1OCc1ccccc1,

# The remaining lines, values behind:
SMILES,inhibition (Plasminogen [1]) [%],inhibition [2] [%],Ki [3] [µM],Ki [4] [µM],also measured
N=C(N)Nc1ncc(Cl)cc1-c1ccccc1,< 50,< 50,166,,
N=C(N)Nc1ncc(Cl)cc1/C=C/c1ccccn1,< 50,,1.6,258,
N=C(N)Nc1ncc(Cl)cc1C#Cc1ccccc1,,,,65.9,Ki (Plasminogen [5]): 218 µM
N=C(N)Nc1ncc(Cl)cc1/C=C/c1ccccc1,< 50,,,53.8,
N=C(N)Nc1ncc(Cl)cc1/C=C/c1ccc2c(c1)OCO2,< 50,,0.49,,inhibition [6]: 50%
N=C(N)Nc1ncc(Cl)cc1Oc1ccccc1,< 50,,2.13,342,
N=C(N)Nc1ncc(Cl)cc1/C=C/c1cccc(C(=O)O)c1,,,,,inhibition (Plasminogen [7]): < 50%
N=C(N)Nc1ncc(Cl)cc1/C=C/C1CCCCC1,< 50,,,71.5,
N=C(N)Nc1ncc(Cl)cc1CCC(=O)O,< 50,< 50,,,
N=C(N)Nc1ncc(Cl)cc1OCC(=O)NCc1ccccc1,< 50,< 50,,,
N=C(N)Nc1ncc(Cl)cc1/C=C/C(=O)O,,,,,Ki (Plasminogen [8]): 279 µM; inhibition [9]: < 50%
N=C(N)Nc1ncc(Cl)cc1/C=C/C(=O)N1CCOCC1,< 50,< 50,2.1,,
N=C(N)Nc1ncc(Cl)cc1/C=C/C(=O)NCc1ccccc1,< 50,< 50,0.77,,
